Entries after “also recorded” stand apart in the source; their conditions may differ.
Columns and labels:
[1] = biological target: T1, adrenergic α1A receptor (Homo sapiens, UniProt P35348); assay: Off-target binding affinity, adrenergic α1A
T1 construct: expressed in transfected cells; host or cells: HEK293, transient
T1 sequence (P35348 1-466): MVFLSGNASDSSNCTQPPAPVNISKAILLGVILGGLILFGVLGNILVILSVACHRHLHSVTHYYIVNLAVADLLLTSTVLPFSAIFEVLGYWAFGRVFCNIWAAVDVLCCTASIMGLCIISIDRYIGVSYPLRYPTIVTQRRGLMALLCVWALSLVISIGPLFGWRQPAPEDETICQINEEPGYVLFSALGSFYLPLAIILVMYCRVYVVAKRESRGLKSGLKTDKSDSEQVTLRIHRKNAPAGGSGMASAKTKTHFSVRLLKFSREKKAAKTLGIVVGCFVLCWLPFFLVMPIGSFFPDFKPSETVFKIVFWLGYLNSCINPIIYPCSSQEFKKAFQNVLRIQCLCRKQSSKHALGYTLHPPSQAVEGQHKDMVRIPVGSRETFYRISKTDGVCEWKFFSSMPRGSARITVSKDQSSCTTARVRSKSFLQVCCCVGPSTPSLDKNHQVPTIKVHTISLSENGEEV

[2] = biological target: T2, dopamine D2 receptor (Homo sapiens, UniProt P14416); assay: Off-target binding affinity, dopamine D2
T2 construct: expressed in transfected cells; host or cells: HEK293, transient
T2 sequence (P14416 whole entry): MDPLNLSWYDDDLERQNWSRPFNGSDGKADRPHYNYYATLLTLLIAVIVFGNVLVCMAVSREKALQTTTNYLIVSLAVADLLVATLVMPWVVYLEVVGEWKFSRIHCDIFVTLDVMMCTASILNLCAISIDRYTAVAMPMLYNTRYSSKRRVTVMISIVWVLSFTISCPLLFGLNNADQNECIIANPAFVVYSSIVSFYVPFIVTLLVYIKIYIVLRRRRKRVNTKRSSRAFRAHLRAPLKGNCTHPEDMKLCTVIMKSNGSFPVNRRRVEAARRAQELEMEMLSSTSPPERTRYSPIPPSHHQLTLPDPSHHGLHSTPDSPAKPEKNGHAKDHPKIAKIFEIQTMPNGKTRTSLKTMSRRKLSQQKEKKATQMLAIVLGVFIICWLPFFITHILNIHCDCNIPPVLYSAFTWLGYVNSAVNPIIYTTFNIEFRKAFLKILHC

[3] = biological target: T3, 5-HT1A receptors (Homo sapiens, UniProt P08908); assay: Functional assay at 5-HT1A, relative to 5-CT; type: cell-based
T3 construct: expressed in transfected cells; host or cells: HEK293, transient
T3 sequence (P08908 1-422): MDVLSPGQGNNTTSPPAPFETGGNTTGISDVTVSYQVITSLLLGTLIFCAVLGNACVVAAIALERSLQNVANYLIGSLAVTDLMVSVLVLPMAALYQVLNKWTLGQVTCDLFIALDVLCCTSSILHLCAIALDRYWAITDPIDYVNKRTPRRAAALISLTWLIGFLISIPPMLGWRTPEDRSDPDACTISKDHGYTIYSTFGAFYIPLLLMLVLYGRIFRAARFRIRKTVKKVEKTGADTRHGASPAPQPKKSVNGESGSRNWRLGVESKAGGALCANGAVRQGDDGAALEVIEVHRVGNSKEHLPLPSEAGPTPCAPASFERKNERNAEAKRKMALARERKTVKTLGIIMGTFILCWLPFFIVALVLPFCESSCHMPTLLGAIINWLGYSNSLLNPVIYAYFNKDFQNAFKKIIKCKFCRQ

[4] = system: C58/J mice; assay: Idiopathic stereotypic jumping in C58/J mice; type: in vivo; settings: 1 and 3 mg/kg
[5] = system: C57BI/6J mice; assay: MK-801-elicited stereotypic rotations in C57BI/6J mice; type: in vivo
Text: (§1) Regarding glutamate neurotransmission in stereotypy, the NMDA receptor antagonist, MK-801, characteristically elicits stereotypic rotations that appear to mimic monogenetic stereotypy observed in Fmr1 KO mice. Furthermore, mutations and autoantibodies of the NMDA glutamate receptor that decrease its function are causally linked to ASD, intellectual disabilities, and psychiatric symptoms in humans.

[6] = system: C57BI/6J mice; assay: MK-801-elicited hyperlocomotion in C57BI/6J mice; type: in vivo; settings: 5.6 mg/kg; MK-801 0.3 mg/kg; 30 min session
Text: Bar graphs show the mean±SEM.
as §1

[7] = system: C57BI/6J mice; assay: d-amphetamine (AMP)-elicited hyperlocomotion in C57BI/6J mice; type: in vivo; settings: 5.6 mg/kg; AMP 3 mg/kg; 30 min session
Text: as §1

[8] = system: C58/J and C57BI/6J mice; assay: Locomotor behavior of the compound on its own (stereotypy assays); type: in vivo; settings: 1, 3 and 5.6 mg/kg
Text: Data are from stereotypy assays using C58/J (left) and C57BI/6J (right) mice. […] Bar graphs show the mean±SEM.

[9] = system: C57BI/6J mice; assay: Social interactions with vehicle-treated littermates and grooming; type: in vivo; settings: 5.6 mg/kg
Text: Data are from C57BI/6J mice.
(§2) Of note, after behavioral testing was complete, blind scorers categorized mice into two groups based on number of rears and initiated social interactions, and the two groups differentiated vehicle from (+)-5-FPT-treated mice with 100% accuracy.

[10] = system: mice; assay: Test for serotonin syndrome; type: in vivo; settings: 5.6 mg/kg
Text: as §2

[11] = Plasma and brain concentrations after subcutaneous administration; type: in vivo, mice
[12] = biological target: T3, 5-HT1A receptors; assay: Binding affinity, HEK293 cells transiently over-expressing human 5-HT1A
[13] = mean (SEM) sessions, score/6 possible
[14] = 30 min after 3.0 mg/kg subcutaneous, mean (SEM)
[15] = 60 min after 3.0 mg/kg subcutaneous, mean (SEM)

For `CN(C)C1CCc2c(cccc2-c2ccccc2F)C1` (single isomer, unassigned; (+)) [(+)-5-FPT, 5-(2′-fluorophenyl)-N,N-dimethyl-1,2,3,4-tetrahydronaphthalen-2-amine], the Ki [1] was over 10 µM, the Ki [2] was over 1 µM and the “Functional activity at 5-HT1A, in words” value [3] was “partial agonist”. For the same compound, the Emax ([3]; read-out: EMAX 5-HT1A) was 48%, the Stereotypic jumping [4] was “potently eliminated stereotypic jumping; also recorded: dose-dependently eliminates” and the “Stereotypic rotational behavior, compound on its own” value [5] was “neither (+)-5-FPT nor AMP caused stereotypic rotational behavior”. The MK-801-elicited stereotypic rotations ([5]; 5.6 mg/kg, MK-801 0.3 mg/kg) was “significantly reduced stereotypical rotations; also recorded: significantly reduces stereotypic rotations”, the MK-801 hyperlocomotion [6] was “significantly decreased hyperlocomotion; also recorded: blocks” and the “Amphetamine (AMP) hyperlocomotion” value [7] was “did not reduce hyperlocomotion; also recorded: did not significantly decrease hyperlocomotion”. For the same compound, the “Locomotor behavior, compound on its own” value [8] was “without altering locomotor behavior; also recorded: did not alter locomotion; also recorded: does not alter locomotor behavior”, the Grooming [9] was “decreasing grooming” and the Social interactions ([9]; six one-min observation sessions) was “significantly increased the number of initiated social interactions; also recorded: increases social interactions”. The “Flat Body” value ([10]; mean (SEM) number of sessions of six with the behavior (score/6 possible)) was 0(0), the “Forepaw Tread” value [10, 13] was 0(0) and the “Head Weave” value [10, 13] was 0(0). For the same compound, the “Moon Walk” value [10, 13] was 0.3(0.2), the Piloerection [10, 13] was 0(0) and the “Straub Tail” value [10, 13] was 0(0). For the same compound, the Tremor [10, 13] was 0(0), the “Symptoms of serotonin syndrome, in words” value ([10]; highest behaviorally-effective dose tested) was “did not result in symptoms of serotonin syndrome” and the “Blood-brain barrier crossing, in words” value ([11]; 30, 60 and 90 min after systemic administration) was “readily crosses the blood-brain barrier”. The Brain concentration [11, 14] was 1.78(0.24) μg/g, the Plasma concentration [11, 14] was 0.114(0.03) μg/mL and the Brain concentration [11, 15] was 2.16(0.17) μg/g. The Plasma concentration [11, 15] was 0.118(0.01) μg/mL, the Brain concentration ([11]; 90 min after 3.0 mg/kg subcutaneous, mean (SEM)) was 1.46(0.09) μg/g and the concentration at 90 min ([11]; mouse, plasma, 90 min after 3.0 mg/kg subcutaneous, mean (SEM)) was 70 ng/mL. For the same compound, the “Clearance in the periphery, in words” value ([11]; plasma relative to brain tissue from 30 min post-administration) was “rapidly cleared in the periphery”.

In the case of `CN(C)C1CCc2c(cccc2-c2ccccc2F)C1` (single isomer, unassigned; (-)) [(−)-5-FPT, 5-(2′-fluorophenyl)-N,N-dimethyl-1,2,3,4-tetrahydronaphthalen-2-amine], the “Affinity at 5-HT1A receptors, in words” value [12] is reported as “no appreciable affinity”, the Ki [1] is reported as over 10 µM and the Ki [2] is reported as over 1 µM.

— patent publication US11021435B2, “Serotonin receptor-targeting compounds and methods” (priority 2014, dated 2021)
